Legend:
Experiment in all cases: KINOMEscan competition binding
Details in all cases: compound 10.0 µM
AAK1 (human) = AAK1 (human) (UniProt Q2M2I8)
BLK (human) = BLK (human) (UniProt P51451)
BRSK2 (human) = BRSK2 (human) (UniProt Q8IWQ3)
CDK11B (human) = CDK11B (human) (UniProt P21127)
CDK13 (human) = CDK13 (human) (UniProt Q14004)
CDK16 (human) = CDK16 (human) (UniProt Q00536)
CRK2 (P.falciparum) = CRK2 (P.falciparum) (UniProt P61075)
CSNK1G2 (human) = CSNK1G2 (human) (UniProt P78368)
DAPK3 (human) = DAPK3 (human) (UniProt O43293)
EPHB1 (human) = EPHB1 (human) (UniProt P54762)
ERBB2 (human) = ERBB2 (human) (UniProt P04626)
FES (human) = FES (human) (UniProt P07332)
FGR (human) = FGR (human) (UniProt P09769)
[1] = system: FLT3 (human), P36888 [D835H]
FRK (human) = FRK (human) (UniProt P42685)
FYN (human) = FYN (human) (UniProt P06241)
GSK3A (human) = GSK3A (human) (UniProt P49840)
[2] = system: KIT (human), P10721 [L576P]
LYN (human) = LYN (human) (UniProt P07948)
MAP3K4 (human) = MAP3K4 (human) (UniProt Q9Y6R4)
MAP3K5 (human) = MAP3K5 (human) (UniProt Q99683)
MAP3K6 (human) = MAP3K6 (human) (UniProt O95382)
MAP4K1 (human) = MAP4K1 (human) (UniProt Q92918)
MAPK3 (human) = MAPK3 (human) (UniProt P27361)
MAST1 (human) = MAST1 (human) (UniProt Q9Y2H9)
MET (human) = MET (human) (UniProt P08581)
MINK1 (human) = MINK1 (human) (UniProt Q8N4C8)
MST4 (human) = MST4 (human) (UniProt Q9P289)
NEK6 (human) = NEK6 (human) (UniProt Q9HC98)
NUAK1 (human) = NUAK1 (human) (UniProt O60285)
PHKG2 (human) = PHKG2 (human) (UniProt P15735)
PIM1 (human) = PIM1 (human) (UniProt P11309)
PKN3 (M.tuberculosis) = PKN3 (M.tuberculosis) (UniProt Q6P5Z2)
PRKG1 (human) = PRKG1 (human) (UniProt Q13976)
PTK2B (human) = PTK2B (human) (UniProt Q14289)
RPS6KA6 KD1 (human) = RPS6KA6 KD1 (human) (UniProt Q9UK32)
STK17B (human) = STK17B (human) (UniProt O94768)
STK32B (human) = STK32B (human) (UniProt Q9NY57)
STK38L (human) = STK38L (human) (UniProt Q9Y2H1)
ULK3 (human) = ULK3 (human) (UniProt Q6PHR2)

Sequence of KIT (human), P10721 [L576P] (P10721 whole entry L576P, looked up): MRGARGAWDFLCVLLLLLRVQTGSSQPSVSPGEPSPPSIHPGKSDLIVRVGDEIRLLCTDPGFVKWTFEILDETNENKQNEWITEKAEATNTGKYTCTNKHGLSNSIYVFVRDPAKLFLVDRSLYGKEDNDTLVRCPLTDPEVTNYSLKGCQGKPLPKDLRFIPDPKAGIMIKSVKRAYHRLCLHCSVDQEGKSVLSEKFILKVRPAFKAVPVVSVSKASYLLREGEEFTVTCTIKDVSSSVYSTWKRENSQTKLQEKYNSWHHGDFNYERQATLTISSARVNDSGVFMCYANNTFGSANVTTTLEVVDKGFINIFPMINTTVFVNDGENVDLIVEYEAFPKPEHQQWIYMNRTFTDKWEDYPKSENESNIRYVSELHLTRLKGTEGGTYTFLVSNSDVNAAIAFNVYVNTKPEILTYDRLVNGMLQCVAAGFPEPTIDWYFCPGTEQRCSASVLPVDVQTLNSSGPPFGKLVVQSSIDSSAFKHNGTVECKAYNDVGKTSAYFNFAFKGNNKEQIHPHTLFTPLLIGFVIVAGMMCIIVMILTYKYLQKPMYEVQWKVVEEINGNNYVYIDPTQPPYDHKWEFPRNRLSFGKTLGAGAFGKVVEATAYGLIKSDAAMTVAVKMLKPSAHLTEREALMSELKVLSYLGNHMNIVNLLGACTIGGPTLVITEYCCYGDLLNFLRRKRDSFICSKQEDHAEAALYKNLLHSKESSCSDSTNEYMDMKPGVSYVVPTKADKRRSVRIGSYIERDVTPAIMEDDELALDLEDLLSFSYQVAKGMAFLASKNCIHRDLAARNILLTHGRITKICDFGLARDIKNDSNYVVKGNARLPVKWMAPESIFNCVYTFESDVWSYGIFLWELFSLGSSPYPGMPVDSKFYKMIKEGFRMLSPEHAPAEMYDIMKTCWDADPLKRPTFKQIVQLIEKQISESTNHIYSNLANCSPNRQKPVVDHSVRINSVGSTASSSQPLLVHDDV
Sequence of FGR (human) (P09769 whole entry, looked up): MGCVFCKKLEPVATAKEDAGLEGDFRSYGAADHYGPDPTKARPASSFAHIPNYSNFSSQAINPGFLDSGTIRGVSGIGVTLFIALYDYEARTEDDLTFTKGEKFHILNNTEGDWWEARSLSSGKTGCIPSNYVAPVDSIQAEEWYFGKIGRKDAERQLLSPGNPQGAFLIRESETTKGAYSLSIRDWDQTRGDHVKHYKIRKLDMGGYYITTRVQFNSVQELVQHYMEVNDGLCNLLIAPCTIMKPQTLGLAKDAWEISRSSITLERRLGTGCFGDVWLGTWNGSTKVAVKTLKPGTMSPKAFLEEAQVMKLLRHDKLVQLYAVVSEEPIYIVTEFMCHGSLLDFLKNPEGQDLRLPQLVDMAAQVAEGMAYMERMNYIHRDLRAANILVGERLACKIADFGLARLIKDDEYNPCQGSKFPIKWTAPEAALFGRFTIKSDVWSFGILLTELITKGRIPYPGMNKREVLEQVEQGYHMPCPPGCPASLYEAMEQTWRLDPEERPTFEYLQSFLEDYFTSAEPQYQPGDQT
Sequence of MAST1 (human) (Q9Y2H9 whole entry, looked up): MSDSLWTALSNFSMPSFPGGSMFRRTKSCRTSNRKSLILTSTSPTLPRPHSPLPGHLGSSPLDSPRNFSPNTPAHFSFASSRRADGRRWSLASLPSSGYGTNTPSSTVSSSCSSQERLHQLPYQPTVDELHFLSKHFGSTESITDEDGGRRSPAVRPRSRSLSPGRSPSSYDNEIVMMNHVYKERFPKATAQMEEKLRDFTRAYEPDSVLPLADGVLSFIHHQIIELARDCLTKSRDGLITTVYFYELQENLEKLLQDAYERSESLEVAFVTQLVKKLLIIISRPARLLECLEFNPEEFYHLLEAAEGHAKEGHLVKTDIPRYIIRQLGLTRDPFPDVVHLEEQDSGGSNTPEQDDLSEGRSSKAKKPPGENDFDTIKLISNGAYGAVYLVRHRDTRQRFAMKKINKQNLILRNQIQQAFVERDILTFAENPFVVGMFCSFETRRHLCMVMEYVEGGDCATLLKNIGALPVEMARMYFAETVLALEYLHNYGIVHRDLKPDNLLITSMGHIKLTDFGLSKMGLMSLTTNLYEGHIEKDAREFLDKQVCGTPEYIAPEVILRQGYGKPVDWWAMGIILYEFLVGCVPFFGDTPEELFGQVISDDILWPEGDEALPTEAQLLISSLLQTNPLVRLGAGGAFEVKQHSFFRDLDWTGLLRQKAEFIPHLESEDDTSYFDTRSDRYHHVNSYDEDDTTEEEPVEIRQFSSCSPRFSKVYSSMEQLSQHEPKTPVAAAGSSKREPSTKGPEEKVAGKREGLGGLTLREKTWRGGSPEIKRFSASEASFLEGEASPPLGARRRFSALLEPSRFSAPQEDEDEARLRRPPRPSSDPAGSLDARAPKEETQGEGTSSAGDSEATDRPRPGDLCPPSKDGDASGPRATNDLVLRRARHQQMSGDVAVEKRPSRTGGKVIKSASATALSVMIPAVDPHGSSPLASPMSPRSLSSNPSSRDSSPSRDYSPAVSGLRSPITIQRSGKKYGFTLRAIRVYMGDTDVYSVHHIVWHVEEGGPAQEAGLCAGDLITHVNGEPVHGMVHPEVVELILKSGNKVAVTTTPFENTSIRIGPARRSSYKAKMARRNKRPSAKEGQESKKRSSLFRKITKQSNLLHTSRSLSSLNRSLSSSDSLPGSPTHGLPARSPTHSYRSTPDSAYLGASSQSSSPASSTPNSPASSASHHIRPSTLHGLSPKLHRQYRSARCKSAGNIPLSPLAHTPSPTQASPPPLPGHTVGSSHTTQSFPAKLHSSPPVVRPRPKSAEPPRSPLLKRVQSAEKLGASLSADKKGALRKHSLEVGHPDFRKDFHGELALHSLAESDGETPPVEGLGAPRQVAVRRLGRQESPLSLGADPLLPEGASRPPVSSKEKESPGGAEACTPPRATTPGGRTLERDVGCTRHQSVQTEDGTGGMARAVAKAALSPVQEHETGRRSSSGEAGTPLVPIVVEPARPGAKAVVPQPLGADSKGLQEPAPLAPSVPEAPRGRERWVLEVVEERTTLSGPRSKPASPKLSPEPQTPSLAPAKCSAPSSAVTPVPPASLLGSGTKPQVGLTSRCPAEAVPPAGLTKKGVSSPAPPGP
Sequence of MAP3K6 (human) (O95382 whole entry, looked up): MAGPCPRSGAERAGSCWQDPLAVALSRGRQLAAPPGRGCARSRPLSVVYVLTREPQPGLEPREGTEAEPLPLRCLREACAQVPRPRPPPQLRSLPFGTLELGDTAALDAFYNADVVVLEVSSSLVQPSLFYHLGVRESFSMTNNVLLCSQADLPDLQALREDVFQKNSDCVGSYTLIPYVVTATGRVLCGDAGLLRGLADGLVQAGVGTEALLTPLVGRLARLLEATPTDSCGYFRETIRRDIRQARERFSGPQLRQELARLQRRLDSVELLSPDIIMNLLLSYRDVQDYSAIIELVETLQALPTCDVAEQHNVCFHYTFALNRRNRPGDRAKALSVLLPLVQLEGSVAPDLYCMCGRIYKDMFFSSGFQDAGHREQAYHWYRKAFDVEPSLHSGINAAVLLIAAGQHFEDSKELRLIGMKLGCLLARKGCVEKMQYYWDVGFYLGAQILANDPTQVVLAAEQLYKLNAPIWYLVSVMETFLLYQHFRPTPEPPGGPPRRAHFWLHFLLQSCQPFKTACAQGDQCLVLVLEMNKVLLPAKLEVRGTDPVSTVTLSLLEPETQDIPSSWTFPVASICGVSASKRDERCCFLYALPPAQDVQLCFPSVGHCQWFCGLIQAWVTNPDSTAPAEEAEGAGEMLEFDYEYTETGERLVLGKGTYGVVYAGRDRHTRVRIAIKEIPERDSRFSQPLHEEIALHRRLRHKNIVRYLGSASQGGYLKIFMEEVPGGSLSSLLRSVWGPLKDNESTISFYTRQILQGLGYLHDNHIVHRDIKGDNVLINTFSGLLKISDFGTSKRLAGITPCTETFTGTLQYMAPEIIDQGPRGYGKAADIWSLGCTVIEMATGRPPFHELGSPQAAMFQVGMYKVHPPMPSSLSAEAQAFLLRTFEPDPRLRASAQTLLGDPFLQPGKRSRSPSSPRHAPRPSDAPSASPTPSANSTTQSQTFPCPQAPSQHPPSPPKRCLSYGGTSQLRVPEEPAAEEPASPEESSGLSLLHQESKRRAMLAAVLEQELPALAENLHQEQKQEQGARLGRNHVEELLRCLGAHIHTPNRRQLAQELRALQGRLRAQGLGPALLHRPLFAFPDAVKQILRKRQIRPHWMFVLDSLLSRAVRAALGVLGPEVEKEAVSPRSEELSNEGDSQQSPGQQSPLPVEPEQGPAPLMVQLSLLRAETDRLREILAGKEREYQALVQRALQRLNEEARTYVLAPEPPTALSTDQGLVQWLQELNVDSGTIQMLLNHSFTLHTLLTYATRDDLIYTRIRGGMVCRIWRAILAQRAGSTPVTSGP
Sequence of NUAK1 (human) (O60285 whole entry, looked up): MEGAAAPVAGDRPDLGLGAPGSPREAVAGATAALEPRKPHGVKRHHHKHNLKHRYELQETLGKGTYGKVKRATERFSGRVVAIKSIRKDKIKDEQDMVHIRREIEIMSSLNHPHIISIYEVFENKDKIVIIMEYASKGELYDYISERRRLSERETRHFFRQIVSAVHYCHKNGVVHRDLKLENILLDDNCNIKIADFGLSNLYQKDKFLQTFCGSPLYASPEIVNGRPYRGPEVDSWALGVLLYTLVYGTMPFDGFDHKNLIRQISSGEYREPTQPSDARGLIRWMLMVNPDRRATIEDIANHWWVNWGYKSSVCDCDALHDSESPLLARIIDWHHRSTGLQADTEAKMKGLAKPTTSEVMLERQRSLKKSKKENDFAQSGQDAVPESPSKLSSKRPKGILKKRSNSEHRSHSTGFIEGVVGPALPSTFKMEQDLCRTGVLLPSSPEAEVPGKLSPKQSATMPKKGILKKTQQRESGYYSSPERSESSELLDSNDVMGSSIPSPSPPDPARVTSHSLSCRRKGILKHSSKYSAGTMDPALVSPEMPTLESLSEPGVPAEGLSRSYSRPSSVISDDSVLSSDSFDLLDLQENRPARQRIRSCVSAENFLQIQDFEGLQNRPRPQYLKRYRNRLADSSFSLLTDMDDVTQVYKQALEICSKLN

COc1cc(C(=O)N2CCC(N3CCN(C)CC3)CC2)ccc1Nc1ncc2c(n1)N(C)c1ccccc1C(=O)N2C
kinase still bound, per cent of control (AAK1 (human)): 84% | kinase still bound, per cent of control (BLK (human)): 97% | kinase still bound, per cent of control (BRSK2 (human)): 64% | kinase still bound, per cent of control (CDK11B (human)): 84% | kinase still bound, per cent of control (CDK13 (human)): 100% | kinase still bound, per cent of control (CDK16 (human)): 96% | kinase still bound, per cent of control (CRK2 (P.falciparum)): 100% | kinase still bound, per cent of control (CSNK1G2 (human)): 100% | kinase still bound, per cent of control (DAPK3 (human)): 67% | kinase still bound, per cent of control (EPHB1 (human)): 98% | kinase still bound, per cent of control (ERBB2 (human)): 100% | kinase still bound, per cent of control (FES (human)): 84% | kinase still bound, per cent of control (FGR (human)): 84% | kinase still bound, per cent of control [1]: 100% | kinase still bound, per cent of control (FRK (human)): 34% | kinase still bound, per cent of control (FYN (human)): 100% | kinase still bound, per cent of control (GSK3A (human)): 100% | kinase still bound, per cent of control [2]: 100% | kinase still bound, per cent of control (LYN (human)): 100% | kinase still bound, per cent of control (MAP3K4 (human)): 100% | kinase still bound, per cent of control (MAP3K5 (human)): 100% | kinase still bound, per cent of control (MAP3K6 (human)): 100% | kinase still bound, per cent of control (MAP4K1 (human)): 100% | kinase still bound, per cent of control (MAPK3 (human)): 100% | kinase still bound, per cent of control (MAST1 (human)): 100% | kinase still bound, per cent of control (MET (human)): 100% | kinase still bound, per cent of control (MINK1 (human)): 77% | kinase still bound, per cent of control (MST4 (human)): 95% | kinase still bound, per cent of control (NEK6 (human)): 76% | kinase still bound, per cent of control (NUAK1 (human)): 47% | kinase still bound, per cent of control (PHKG2 (human)): 33% | kinase still bound, per cent of control (PIM1 (human)): 100% | kinase still bound, per cent of control (PKN3 (M.tuberculosis)): 100% | kinase still bound, per cent of control (PRKG1 (human)): 98% | kinase still bound, per cent of control (PTK2B (human)): 78% | kinase still bound, per cent of control (RPS6KA6 KD1 (human)): 92% | kinase still bound, per cent of control (STK17B (human)): 93% | kinase still bound, per cent of control (STK32B (human)): 100% | kinase still bound, per cent of control (STK38L (human)): 100% | kinase still bound, per cent of control (ULK3 (human)): 100%

O=c1cc(N2CCOCC2)oc2c(-c3cccc4c3sc3ccccc34)cccc12
kinase still bound, per cent of control (AAK1 (human)): 87% | kinase still bound, per cent of control (BLK (human)): 100% | kinase still bound, per cent of control (BRSK2 (human)): 100% | kinase still bound, per cent of control (CDK11B (human)): 95% | kinase still bound, per cent of control (CDK13 (human)): 100% | kinase still bound, per cent of control (CDK16 (human)): 97% | kinase still bound, per cent of control (CRK2 (P.falciparum)): 100% | kinase still bound, per cent of control (CSNK1G2 (human)): 85% | kinase still bound, per cent of control (DAPK3 (human)): 92% | kinase still bound, per cent of control (EPHB1 (human)): 100% | kinase still bound, per cent of control (ERBB2 (human)): 100% | kinase still bound, per cent of control (FES (human)): 93% | kinase still bound, per cent of control (FGR (human)): 92% | kinase still bound, per cent of control [1]: 92% | kinase still bound, per cent of control (FRK (human)): 91% | kinase still bound, per cent of control (FYN (human)): 100% | kinase still bound, per cent of control (GSK3A (human)): 78% | kinase still bound, per cent of control [2]: 66% | kinase still bound, per cent of control (LYN (human)): 95% | kinase still bound, per cent of control (MAP3K4 (human)): 100% | kinase still bound, per cent of control (MAP3K5 (human)): 100% | kinase still bound, per cent of control (MAP3K6 (human)): 100% | kinase still bound, per cent of control (MAP4K1 (human)): 90% | kinase still bound, per cent of control (MAPK3 (human)): 100% | kinase still bound, per cent of control (MAST1 (human)): 100% | kinase still bound, per cent of control (MET (human)): 63% | kinase still bound, per cent of control (MINK1 (human)): 100% | kinase still bound, per cent of control (MST4 (human)): 95% | kinase still bound, per cent of control (NEK6 (human)): 100% | kinase still bound, per cent of control (NUAK1 (human)): 100% | kinase still bound, per cent of control (PHKG2 (human)): 99% | kinase still bound, per cent of control (PIM1 (human)): 62% | kinase still bound, per cent of control (PKN3 (M.tuberculosis)): 6.6% | kinase still bound, per cent of control (PRKG1 (human)): 100% | kinase still bound, per cent of control (PTK2B (human)): 94% | kinase still bound, per cent of control (RPS6KA6 KD1 (human)): 71% | kinase still bound, per cent of control (STK17B (human)): 100% | kinase still bound, per cent of control (STK32B (human)): 95% | kinase still bound, per cent of control (STK38L (human)): 95% | kinase still bound, per cent of control (ULK3 (human)): 64%

COCC(=O)NC/C=C/c1ccc2ncnc(Nc3ccc(Oc4ccc(C)nc4)c(C)c3)c2c1
kinase still bound, per cent of control (AAK1 (human)): 100% | kinase still bound, per cent of control (BLK (human)): 62% | kinase still bound, per cent of control (BRSK2 (human)): 100% | kinase still bound, per cent of control (CDK11B (human)): 100% | kinase still bound, per cent of control (CDK13 (human)): 100% | kinase still bound, per cent of control (CDK16 (human)): 74% | kinase still bound, per cent of control (CRK2 (P.falciparum)): 100% | kinase still bound, per cent of control (CSNK1G2 (human)): 100% | kinase still bound, per cent of control (DAPK3 (human)): 96% | kinase still bound, per cent of control (EPHB1 (human)): 100% | kinase still bound, per cent of control (ERBB2 (human)): 0% | kinase still bound, per cent of control (FES (human)): 100% | kinase still bound, per cent of control (FGR (human)): 89% | kinase still bound, per cent of control (FRK (human)): 100% | kinase still bound, per cent of control (FYN (human)): 100% | kinase still bound, per cent of control (GSK3A (human)): 100% | kinase still bound, per cent of control [2]: 54% | kinase still bound, per cent of control (LYN (human)): 92% | kinase still bound, per cent of control (MAP3K4 (human)): 97% | kinase still bound, per cent of control (MAP3K5 (human)): 90% | kinase still bound, per cent of control (MAP3K6 (human)): 100% | kinase still bound, per cent of control (MAP4K1 (human)): 91% | kinase still bound, per cent of control (MAPK3 (human)): 95% | kinase still bound, per cent of control (MAST1 (human)): 100% | kinase still bound, per cent of control (MET (human)): 74% | kinase still bound, per cent of control (MINK1 (human)): 77% | kinase still bound, per cent of control (MST4 (human)): 90% | kinase still bound, per cent of control (NEK6 (human)): 100% | kinase still bound, per cent of control (NUAK1 (human)): 100% | kinase still bound, per cent of control (PHKG2 (human)): 86% | kinase still bound, per cent of control (PIM1 (human)): 100% | kinase still bound, per cent of control (PKN3 (M.tuberculosis)): 23% | kinase still bound, per cent of control (PRKG1 (human)): 100% | kinase still bound, per cent of control (PTK2B (human)): 80% | kinase still bound, per cent of control (RPS6KA6 KD1 (human)): 96% | kinase still bound, per cent of control (STK17B (human)): 100% | kinase still bound, per cent of control (STK32B (human)): 92% | kinase still bound, per cent of control (STK38L (human)): 100% | kinase still bound, per cent of control (ULK3 (human)): 68%

— the kinase profiling compilation of Christmann-Franck et al. (2016)
